Measurements taken from publication PMC8063737 (The Journal of Biological Chemistry, 2021).
Entries after “also recorded” stand apart in the source; their conditions may differ. Like-named read-outs stand apart in the source and are kept apart here.

Columns and labels:
[1] = molecular target: T1, pyrene-labeled F-actin (PFA) (Oryctolagus cuniculus, UniProt P68135); assay: Compound binding to pyrene-labeled F-actin, steady-state fluorescence dose response; set-up: species or system rabbit; settings: for effect on PFA (pyrene) fluorescence, dose-response: 2.5–150 μM compound
T1 construct: Rabbit skeletal F-actin was prepared as described previously from acetone powder; from tissue; host or cells: rabbit skeletal muscle (acetone powder)

[2] = molecular target: T2, PFA.C.S1 complex (F-actin with cardiac S1) (Oryctolagus cuniculus, UniProt P68135); assay: Steady-state S1 binding to and ATP-induced dissociation from the PFA.compound complex; assay type: biochemical, bovine; settings: 0.7:1 S1:actin, rigor; compound 100 μM except Flu and Dan 50 μM, Mit 10 μM
T2 construct: Rabbit skeletal F-actin was prepared as described previously from acetone powder; tissue Pelfreez Biologicals (bovine left ventricular muscle); host or cells: rabbit skeletal muscle (actin); bovine left ventricular muscle (myosin S1)
Description: We then added Mg.ATP and measured PFA fluorescence (Fig. 8B, peach bars).
Fluorescence spectra of 2 μM PFA in F-Mg buffer were acquired with a Cary spectrophotometer. The sample was placed in a cuvette in a temperature-controlled holder and excited with a Xenon flash lamp at 365 nm with 5 nm slit width. Emission fluorescence intensity was acquired and averaged for 30 s at 407 nm with a 10 nm slit width. […] Fluorescence intensity (F) was corrected for each compound's emission at 407 nm.
Fcalc was determined from normalized fluorescence intensity:(5) Fcalc=(FCompound+F0.7S1)

[3] = test system: skeletal and cardiac actin; set-up: method as in PMID 32788211; settings: cited from earlier work; for isoform-specific differences in actin polymerization: skeletal versus cardiac actin
[4] = molecular target: T3, rigor PFA.S1 complex (cardiac myosin S1) (Oryctolagus cuniculus, UniProt P68135); assay: Stopped-flow ATP-induced dissociation of actin-S1 complex (ATP binding and isomerization); assay type: biochemical, bovine; settings: for decrease in rate constant k+2 for isomerization versus control: hyperbolic fits of kobs1 versus [MgATP]; for overall category of compound effect: severe if at least one parameter (K1 or k+2) was affected >3-fold; for effect on K1 (shown as 1/K1), category: versus control
T3 construct: Rabbit skeletal F-actin was prepared as described previously from acetone powder; tissue Pelfreez Biologicals (bovine left ventricular muscle); host or cells: rabbit skeletal muscle (actin); bovine left ventricular muscle (myosin S1)
Description: To determine the equilibrium constant K1 for the formation of the collision complex, A.M.T, the rigor complex of PFA and myosin-S1 complex was formed in one syringe and the Mg.ATP placed in another syringe. […] (Equation 10). The rate constant k+2 was determined from hyperbolic plots of kobs1 versus [MgATP] […] The association equilibrium constant K1 was determined from the ratio of K1k+2/k+2.
Experiments were performed at 25 °C with filtered and degassed solutions. The instrument dead time for single-mix experiments was 1.3 ms. Samples were excited at 365 nm, and pyrene emission fluorescence was acquired with a 2 mm path length and 400 nm long-pass filter. Data analysis was done using the program, ORIGIN (OriginLab Corp).
K1 was determined by mixing the rigor complex of PFA.S1 (A.M) (final concentration of 0.05 μM) with varying final concentrations of MgATP (12.5–1000 μM) in F-Mg buffer in the absence and presence of the compounds, whereby the PFA.compound complex was first made, then mixed with S1, and placed in one syringe, and MgATP solution was placed in the other syringe. The transient curves were fitted to rate constants, kobs, fast and kobs, slow, and with corresponding amplitudes A1 and A2.

[5] = clinical use, cited from earlier work; for liver toxicity: ref 26 for Dan
PFA.C.S1 complex = molecular target: T4, PFA.C.S1 complex (Oryctolagus cuniculus, UniProt P68135); assay: Chase experiment: dissociation of S1 from rigor actin-S1 complex by unlabeled F-actin; assay type: biochemical, bovine; settings: 20-fold unlabeled F-actin chase, 0.25 μM PFA.S1, 20 min
T4 construct: Rabbit skeletal F-actin was prepared as described previously from acetone powder; tissue Pelfreez Biologicals (bovine left ventricular muscle); host or cells: rabbit skeletal muscle (actin); bovine left ventricular muscle (myosin S1)
From the text: The transient curve was best fitted to a double exponential equation to yield a fast and slow rate constant of 0.01 ± 5E-4 s^−1 and 0.003 ± 4E-4 s^−1, respectively.

[6] = test system: PFA.S1 (pyrene-labeled F-actin with cardiac myosin S1); assay: Steady-state PFA fluorescence with myosin-binding drugs (PFA, PFA.S1, plus MgATP); assay type: biochemical, bovine; settings: 5 μM drug; for change in PFA fluorescence: 2 μM PFA, no S1; for PFA fluorescence restored by addition of MgATP: 2 μM PFA.S1, 1 mM MgATP, 95% without compound; for effect on S1-induced decrease in pyrene fluorescence: S1 equimolar to actin, no ATP
Description: (§1) Fluorescence spectra of 2 μM PFA in F-Mg buffer were acquired with a Cary spectrophotometer. The sample was placed in a cuvette in a temperature-controlled holder and excited with a Xenon flash lamp at 365 nm with 5 nm slit width. Emission fluorescence intensity was acquired and averaged for 30 s at 407 nm with a 10 nm slit width. A final concentration of 2 μM PFA in F-actin buffer was used. Fluorescence intensity (F) was corrected for each compound's emission at 407 nm.

[7] = test system: equimolar PFA.S1 (2 μM) complex; assay: Effect of nucleotide analogs on PFA-S1 fluorescence; assay type: biochemical, bovine; settings: 10 mM PPi
Description: The ten compounds were obtained from Target Molecule Corp and stored at –20 °C as 10 mM stock solutions in DMSO until use. OM and Mava were obtained from Selleck Chemicals and stored as 10 mM stock solutions at –20 °C until use. Sodium vanadate ([…]) and potassium pyrophosphate (PPi) were obtained from Sigma-Aldrich, and stock solutions of 50 mM and 1 M, respectively, were prepared as described previously ([36]). […] To study the effect of pyrophosphate, 10 mM PPi was added to an equimolar PFA.S1 (2 μM) complex. These ligand concentrations were saturating.
as §1

[8] = 2 μM PFA, no MgATP, fits to the Hill equation, read-out: apparent dissociation equilibrium constant, Kd, of compound binding to PFA
[9] = 2 μM PFA, 200-500 μM MgATP, read-out: Kd of compound binding to PFA in the presence of MgATP

Row | SMILES | effect on PFA (pyrene) fluorescence, dose-response ([1]; 2 μM PFA) | decrease in PFA fluorescence of PFA.compound.S1, experimental versus calculated (Fcalc) [2] | polymerization rate of skeletal and cardiac actin [3] | overall category of compound effect [4] | increase in K1 versus control [4] [factor] | further results
1 | COc1ccccc1OCCNCC(O)COc1cccc2[nH]c3ccccc3c12 (stereo not shown) [Car] | minimal effects | greater decrease in PFA fluorescence | reduced the polymerization rate | mild (mild effects to be <1.5-fold) |  | decrease in rate constant k+2 for isomerization versus control [4]: < 1.5 fold; effect on K1 (shown as 1/K1), category [4]: mild (mild effects to be <1.5-fold)
2 | O=C1CN(/N=C/c2ccc(-c3ccc([N+](=O)[O-])cc3)o2)C(O)=N1 [Dan, Dantrolene] | decreased PFA fluorescence with hyperbolic dependence | smaller decrease in PFA fluorescence than expected | did not have significant effects | severe (severe effects to be >3-fold) | ≥ 2 | Kd [1, 8]: 17.5 ± 6 µM; liver toxicity [5]: causes hepatoxicity; rate of dissociation of S1 from rigor actin-S1 complex versus control (PFA.C.S1 complex): No significant change
3 | OCCN1CCN(CCCN2c3ccccc3Sc3ccc(C(F)(F)F)cc32)CC1 [Flp] |  |  | reduced the polymerization rate |  |  | liver toxicity [5]: cause liver toxicity
4 | CC(C)C(=O)Nc1ccc([N+](=O)[O-])c(C(F)(F)F)c1 [Flu] | decreased PFA fluorescence with hyperbolic dependence | smaller decrease in PFA fluorescence than expected |  | severe (severe effects to be >3-fold) | ≥ 2 | Kd [1]: 39.6 ± 22 µM; effect of MgATP on fluorescence of PFA–compound complexes ([1]; 200-500 μM MgATP): MgATP relieves the fluorescence inhibition; rate of dissociation of S1 from rigor actin-S1 complex versus control (PFA.C.S1 complex): No significant change
5 | C=CCc1ccc(O)c(-c2ccc(O)c(CC=C)c2)c1 [Hon] | minimal effects | no effect | did not have significant effects | mild (mild effects to be <1.5-fold) |  | decrease in rate constant k+2 for isomerization versus control [4]: < 1.5 fold; effect on K1 (shown as 1/K1), category [4]: mild (mild effects to be <1.5-fold)
6 | CC(C)n1c(=O)cc(N[C@@H](C)c2ccccc2)[nH]c1=O [Mava, mavacamten] |  |  |  |  |  | change in PFA fluorescence [6]: 1%; PFA fluorescence restored by addition of MgATP [6]: 97%; effect on S1-induced decrease in pyrene fluorescence [6]: no effect
7 | OC(c1cc(C(F)(F)F)nc2c(C(F)(F)F)cccc12)C1CCCCN1 (stereo not shown) [Mef] | decreased PFA fluorescence with hyperbolic dependence | smaller decrease in PFA fluorescence than expected | did not have significant effects | severe (severe effects to be >3-fold) | ≥ 2 | Kd [1, 9]: 89 ± 28.4 µM; Kd [1, 8]: 20 ± 10 µM; effect of MgATP on fluorescence of PFA–compound complexes ([1]; 200-500 μM MgATP): increased PFA fluorescence in the presence of MgATP; also recorded: MgATP relieves the fluorescence inhibition
8 | O=C1c2c(O)ccc(O)c2C(=O)c2c(NCCNCCO)ccc(NCCNCCO)c21 [Mit, mitoxantrone] | decreased PFA fluorescence with hyperbolic dependence | smaller decrease in PFA fluorescence than expected | reduced the polymerization rate | severe (severe effects to be >3-fold) | ≥ 2 | Kd [1, 9]: 24.7 ± 5.8 µM; Kd [1, 8]: 7.2 ± 1.2 µM; effect of MgATP on fluorescence of PFA–compound complexes ([1]; 200-500 μM MgATP): increased PFA fluorescence in the presence of MgATP; also recorded: MgATP relieves the fluorescence inhibition; rate of dissociation of S1 from rigor actin-S1 complex versus control (PFA.C.S1 complex): No significant change
9 | COC(=O)N1CCN(Cc2cccc(NC(=O)Nc3ccc(C)nc3)c2F)CC1 [OM, omecamtiv mecarbil] |  |  |  |  |  | change in PFA fluorescence [6]: 4%; PFA fluorescence restored by addition of MgATP [6]: 65%; effect on S1-induced decrease in pyrene fluorescence [6]: no effect
10 | c1ccc2c(c1)Nc1ccccc1S2 [Phn] | minimal effects | greater decrease in PFA fluorescence |  | severe (severe effects to be >3-fold) | ≥ 2 | isoform-specific differences in actin polymerization [3]: showed isoform-specific differences
11 | CCCCCNC(=N)N/N=C/c1c[nH]c2ccc(OC)cc12 [Teg] | minimal effects | smaller decrease in PFA fluorescence than expected |  | severe (severe effects to be >3-fold) | ≥ 2 | heart failure ([5]; FDA caution or withdrawal): can contribute to heart failure; isoform-specific differences in actin polymerization [3]: showed isoform-specific differences
12 | CSc1ccc2c(c1)N(CCC1CCCCN1C)c1ccccc1S2 (stereo not shown) [Thi] |  |  | reduced the polymerization rate |  |  | liver toxicity [5]: cause liver toxicity; isoform-specific differences in actin polymerization [3]: showed isoform-specific differences
13 | O=P([O-])([O-])OP(=O)([O-])[O-].[K+].[K+].[K+].[K+] [potassium pyrophosphate (PPi), potassium pyrophosphate] |  |  |  |  |  | restoration of pyrene fluorescence of PFA-S1 [7]: almost completely restored
